In the supplement of paper PMC10307832:

Experiments:
Assay in all cases: relative viability (nuclei count vs DMSO), 5 days (fraction); higher = more cells survive
BMX-IN-1 + Pictilisib = compound: C=CC(=O)Nc1cc(-n2c(=O)ccc3cnc4ccc(-c5ccc(NS(C)(=O)=O)cc5)cc4c32)ccc1C [BMX-IN-1] + CS(=O)(=O)N1CCN(Cc2cc3nc(-c4cccc5[nH]ncc45)nc(N4CCOCC4)c3s2)CC1 [Pictilisib] (partner 1 µM)
In short: (§1)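 Cells from lung cancer lines were seeded into 1536-well plates and, one day later, dosed by pin tool. Treatments were either a single drug or a fixed dose of an anchor drug with five library-drug doses (not always all listed) in √10 steps. After 5 days, nuclei were stained in a one-step fixation (final 0.05% Triton X-100, 1% formaldehyde, 1 ug/ml Hoechst) and counted on 4× images, and relative viability is the treated-to-vehicle nuclei ratio, as the median of duplicate plates.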

Ibrutinib + Linsitinib = compound: C=CC(=O)N1CCC[C@@H](n2nc(-c3ccc(Oc4ccccc4)cc3)c3c(N)ncnc32)C1 [Ibrutinib] + C[C@]1(O)C[C@@H](c2nc(-c3ccc4ccc(-c5ccccc5)nc4c3)c3c(N)nccn32)C1 [Linsitinib] (partner 1 µM)
In short: as §1

PAC-1 + OSI-027 = compound: C=CCc1cccc(/C=N/NC(=O)CN2CCN(Cc3ccccc3)CC2)c1O [PAC-1] + COc1cccc2cc(-c3nc([C@H]4CC[C@H](C(=O)O)CC4)n4ncnc(N)c34)[nH]c12 [OSI-027] (partner 0.5 µM)
In short: as §1

BMX-IN-1 + Pemetrexed = compound: C=CC(=O)Nc1cc(-n2c(=O)ccc3cnc4ccc(-c5ccc(NS(C)(=O)=O)cc5)cc4c32)ccc1C [BMX-IN-1] + Nc1nc2[nH]cc(CCc3ccc(C(=O)N[C@@H](CCC(=O)O)C(=O)O)cc3)c2c(=O)[nH]1 [Pemetrexed] (partner 0.2 µM)
In short: as §1

201T
relative viability (BMX-IN-1 + Pictilisib; first compound 0.02 µM): 0.752
relative viability (BMX-IN-1 + Pictilisib; first compound 0.2 µM): 0.72
relative viability (BMX-IN-1 + Pictilisib; first compound 0.6325 µM): 0.71
relative viability (BMX-IN-1 + Pictilisib; first compound 2 µM): 0.695
relative viability (Ibrutinib + Linsitinib; first compound 0.005 µM): 0.961
relative viability (Ibrutinib + Linsitinib; first compound 0.01581 µM): 1.05
relative viability (Ibrutinib + Linsitinib; first compound 0.05 µM): 1.01
relative viability (Ibrutinib + Linsitinib; first compound 0.1581 µM): 1.06
relative viability (Ibrutinib + Linsitinib; first compound 0.5 µM): 0.907
relative viability (PAC-1 + OSI-027; first compound 0.02 µM): 0.702
relative viability (PAC-1 + OSI-027; first compound 0.06325 µM): 0.754
relative viability (PAC-1 + OSI-027; first compound 0.2 µM): 0.848
relative viability (PAC-1 + OSI-027; first compound 2 µM): 0.839
relative viability (BMX-IN-1 + Pemetrexed; first compound 0.02 µM): 0.326
relative viability (BMX-IN-1 + Pemetrexed; first compound 0.2 µM): 0.342
relative viability (BMX-IN-1 + Pemetrexed; first compound 0.6325 µM): 0.339
relative viability (BMX-IN-1 + Pemetrexed; first compound 2 µM): 0.351

A549
relative viability (BMX-IN-1 + Pictilisib; first compound 0.02 µM): 0.69
relative viability (BMX-IN-1 + Pictilisib; first compound 0.2 µM): 0.757
relative viability (BMX-IN-1 + Pictilisib; first compound 0.6325 µM): 0.56
relative viability (BMX-IN-1 + Pictilisib; first compound 2 µM): 0.517
relative viability (Ibrutinib + Linsitinib; first compound 0.01581 µM): 0.58
relative viability (Ibrutinib + Linsitinib; first compound 0.05 µM): 0.519
relative viability (Ibrutinib + Linsitinib; first compound 0.1581 µM): 0.505
relative viability (Ibrutinib + Linsitinib; first compound 0.5 µM): 0.377

A-427
relative viability (BMX-IN-1 + Pictilisib; first compound 0.02 µM): 0.796
relative viability (BMX-IN-1 + Pictilisib; first compound 0.2 µM): 0.83
relative viability (BMX-IN-1 + Pictilisib; first compound 0.6325 µM): 0.948
relative viability (BMX-IN-1 + Pictilisib; first compound 2 µM): 0.78
relative viability (Ibrutinib + Linsitinib; first compound 0.005 µM): 0.986
relative viability (Ibrutinib + Linsitinib; first compound 0.01581 µM): 1.09
relative viability (Ibrutinib + Linsitinib; first compound 0.05 µM): 1.15
relative viability (Ibrutinib + Linsitinib; first compound 0.1581 µM): 1.1
relative viability (Ibrutinib + Linsitinib; first compound 0.5 µM): 1.12
relative viability (PAC-1 + OSI-027; first compound 0.02 µM): 0.434
relative viability (PAC-1 + OSI-027; first compound 0.06325 µM): 0.481
relative viability (PAC-1 + OSI-027; first compound 0.2 µM): 0.47
relative viability (PAC-1 + OSI-027; first compound 2 µM): 0.476
relative viability (BMX-IN-1 + Pemetrexed; first compound 0.02 µM): 1.01
relative viability (BMX-IN-1 + Pemetrexed; first compound 0.2 µM): 1.05
relative viability (BMX-IN-1 + Pemetrexed; first compound 0.6325 µM): 1.11
relative viability (BMX-IN-1 + Pemetrexed; first compound 2 µM): 0.992

ABC-1
relative viability (BMX-IN-1 + Pictilisib; first compound 0.02 µM): 0.802
relative viability (BMX-IN-1 + Pictilisib; first compound 0.2 µM): 0.75
relative viability (BMX-IN-1 + Pictilisib; first compound 0.6325 µM): 0.847
relative viability (BMX-IN-1 + Pictilisib; first compound 2 µM): 0.394
relative viability (Ibrutinib + Linsitinib; first compound 0.005 µM): 0.822
relative viability (Ibrutinib + Linsitinib; first compound 0.01581 µM): 0.736
relative viability (Ibrutinib + Linsitinib; first compound 0.05 µM): 0.795
relative viability (Ibrutinib + Linsitinib; first compound 0.1581 µM): 0.879
relative viability (Ibrutinib + Linsitinib; first compound 0.5 µM): 0.644
relative viability (PAC-1 + OSI-027; first compound 0.02 µM): 0.478
relative viability (PAC-1 + OSI-027; first compound 0.06325 µM): 0.44
relative viability (PAC-1 + OSI-027; first compound 0.2 µM): 0.468
relative viability (PAC-1 + OSI-027; first compound 2 µM): 0.457

BEN
relative viability (BMX-IN-1 + Pictilisib; first compound 0.02 µM): 0.643
relative viability (BMX-IN-1 + Pictilisib; first compound 0.2 µM): 0.741
relative viability (BMX-IN-1 + Pictilisib; first compound 0.6325 µM): 0.513
relative viability (BMX-IN-1 + Pictilisib; first compound 2 µM): 0.596
relative viability (Ibrutinib + Linsitinib; first compound 0.005 µM): 0.766
relative viability (Ibrutinib + Linsitinib; first compound 0.01581 µM): 0.885
relative viability (Ibrutinib + Linsitinib; first compound 0.05 µM): 0.853
relative viability (Ibrutinib + Linsitinib; first compound 0.1581 µM): 0.851
relative viability (Ibrutinib + Linsitinib; first compound 0.5 µM): 0.883
relative viability (PAC-1 + OSI-027; first compound 0.02 µM): 0.303
relative viability (PAC-1 + OSI-027; first compound 0.06325 µM): 0.264
relative viability (PAC-1 + OSI-027; first compound 0.2 µM): 0.291
relative viability (PAC-1 + OSI-027; first compound 2 µM): 0.289
relative viability (BMX-IN-1 + Pemetrexed; first compound 0.02 µM): 0.701
relative viability (BMX-IN-1 + Pemetrexed; first compound 0.2 µM): 0.768
relative viability (BMX-IN-1 + Pemetrexed; first compound 0.6325 µM): 0.866
relative viability (BMX-IN-1 + Pemetrexed; first compound 2 µM): 0.708

CAL-12T
relative viability (BMX-IN-1 + Pictilisib; first compound 0.02 µM): 0.527
relative viability (BMX-IN-1 + Pictilisib; first compound 0.2 µM): 0.425
relative viability (BMX-IN-1 + Pictilisib; first compound 0.6325 µM): 0.47
relative viability (BMX-IN-1 + Pictilisib; first compound 2 µM): 0.422
relative viability (Ibrutinib + Linsitinib; first compound 0.005 µM): 0.805
relative viability (Ibrutinib + Linsitinib; first compound 0.01581 µM): 0.724
relative viability (Ibrutinib + Linsitinib; first compound 0.05 µM): 0.627
relative viability (Ibrutinib + Linsitinib; first compound 0.1581 µM): 0.739
relative viability (Ibrutinib + Linsitinib; first compound 0.5 µM): 0.472
relative viability (PAC-1 + OSI-027; first compound 0.02 µM): 0.673
relative viability (PAC-1 + OSI-027; first compound 0.06325 µM): 0.723
relative viability (PAC-1 + OSI-027; first compound 0.2 µM): 0.567
relative viability (PAC-1 + OSI-027; first compound 2 µM): 0.645
relative viability (BMX-IN-1 + Pemetrexed; first compound 0.02 µM): 1.27
relative viability (BMX-IN-1 + Pemetrexed; first compound 0.2 µM): 1.36
relative viability (BMX-IN-1 + Pemetrexed; first compound 0.6325 µM): 1.37
relative viability (BMX-IN-1 + Pemetrexed; first compound 2 µM): 1.15

COR-L23
relative viability (BMX-IN-1 + Pictilisib; first compound 0.02 µM): 1.1
relative viability (BMX-IN-1 + Pictilisib; first compound 0.2 µM): 1.3
relative viability (BMX-IN-1 + Pictilisib; first compound 0.6325 µM): 0.76
relative viability (BMX-IN-1 + Pictilisib; first compound 2 µM): 0.855
relative viability (Ibrutinib + Linsitinib; first compound 0.005 µM): 1.16
relative viability (Ibrutinib + Linsitinib; first compound 0.01581 µM): 0.867
relative viability (Ibrutinib + Linsitinib; first compound 0.05 µM): 0.973
relative viability (Ibrutinib + Linsitinib; first compound 0.1581 µM): 0.986
relative viability (PAC-1 + OSI-027; first compound 0.02 µM): 0.885
relative viability (PAC-1 + OSI-027; first compound 0.06325 µM): 0.771
relative viability (PAC-1 + OSI-027; first compound 0.2 µM): 0.724
relative viability (PAC-1 + OSI-027; first compound 2 µM): 0.698
relative viability (BMX-IN-1 + Pemetrexed; first compound 0.02 µM): 0.188
relative viability (BMX-IN-1 + Pemetrexed; first compound 0.2 µM): 0.204
relative viability (BMX-IN-1 + Pemetrexed; first compound 0.6325 µM): 0.206
relative viability (BMX-IN-1 + Pemetrexed; first compound 2 µM): 0.165

COR-L 105
relative viability (BMX-IN-1 + Pictilisib; first compound 0.02 µM): 0.383
relative viability (BMX-IN-1 + Pictilisib; first compound 0.2 µM): 0.4
relative viability (BMX-IN-1 + Pictilisib; first compound 0.6325 µM): 0.481
relative viability (BMX-IN-1 + Pictilisib; first compound 2 µM): 0.4
relative viability (Ibrutinib + Linsitinib; first compound 0.005 µM): 0.739
relative viability (Ibrutinib + Linsitinib; first compound 0.01581 µM): 0.811
relative viability (Ibrutinib + Linsitinib; first compound 0.05 µM): 0.709
relative viability (Ibrutinib + Linsitinib; first compound 0.1581 µM): 0.914
relative viability (Ibrutinib + Linsitinib; first compound 0.5 µM): 0.321
relative viability (PAC-1 + OSI-027; first compound 0.02 µM): 0.756
relative viability (PAC-1 + OSI-027; first compound 0.06325 µM): 0.669
relative viability (PAC-1 + OSI-027; first compound 0.2 µM): 0.615
relative viability (PAC-1 + OSI-027; first compound 2 µM): 0.756
relative viability (BMX-IN-1 + Pemetrexed; first compound 0.02 µM): 1.2
relative viability (BMX-IN-1 + Pemetrexed; first compound 0.2 µM): 1.07
relative viability (BMX-IN-1 + Pemetrexed; first compound 0.6325 µM): 1.3
relative viability (BMX-IN-1 + Pemetrexed; first compound 2 µM): 1.04

Calu-6
relative viability (BMX-IN-1 + Pictilisib; first compound 0.02 µM): 1.14
relative viability (BMX-IN-1 + Pictilisib; first compound 0.2 µM): 1.21
relative viability (BMX-IN-1 + Pictilisib; first compound 0.6325 µM): 1.09
relative viability (BMX-IN-1 + Pictilisib; first compound 2 µM): 0.866
relative viability (Ibrutinib + Linsitinib; first compound 0.005 µM): 0.991
relative viability (Ibrutinib + Linsitinib; first compound 0.05 µM): 0.928
relative viability (Ibrutinib + Linsitinib; first compound 0.1581 µM): 1.04
relative viability (Ibrutinib + Linsitinib; first compound 0.5 µM): 0.888

ChaGo-K-1
relative viability (BMX-IN-1 + Pictilisib; first compound 0.02 µM): 0.66
relative viability (BMX-IN-1 + Pictilisib; first compound 0.2 µM): 0.64
relative viability (BMX-IN-1 + Pictilisib; first compound 0.6325 µM): 0.858
relative viability (BMX-IN-1 + Pictilisib; first compound 2 µM): 0.614
relative viability (PAC-1 + OSI-027; first compound 0.02 µM): 0.623
relative viability (PAC-1 + OSI-027; first compound 0.06325 µM): 0.617
relative viability (PAC-1 + OSI-027; first compound 0.2 µM): 0.57
relative viability (PAC-1 + OSI-027; first compound 2 µM): 0.635
relative viability (BMX-IN-1 + Pemetrexed; first compound 0.02 µM): 0.238
relative viability (BMX-IN-1 + Pemetrexed; first compound 0.2 µM): 0.305
relative viability (BMX-IN-1 + Pemetrexed; first compound 0.6325 µM): 0.25
relative viability (BMX-IN-1 + Pemetrexed; first compound 2 µM): 0.39

EBC-1
relative viability (BMX-IN-1 + Pictilisib; first compound 0.02 µM): 0.249
relative viability (BMX-IN-1 + Pictilisib; first compound 0.2 µM): 0.303
relative viability (BMX-IN-1 + Pictilisib; first compound 0.6325 µM): 0.382
relative viability (BMX-IN-1 + Pictilisib; first compound 2 µM): 0.255
relative viability (Ibrutinib + Linsitinib; first compound 0.005 µM): 0.848
relative viability (Ibrutinib + Linsitinib; first compound 0.01581 µM): 1
relative viability (Ibrutinib + Linsitinib; first compound 0.05 µM): 0.825
relative viability (Ibrutinib + Linsitinib; first compound 0.1581 µM): 0.864
relative viability (Ibrutinib + Linsitinib; first compound 0.5 µM): 0.952
